Columns and labels:
[1] = parameters: method as in Kusama et al. [1998]; conditions: binding to plasma proteins; ref Kusama et al. [1998]; cited from earlier work
[2] = Pharmacokinetics of VCM after intravenous administration to control and PN rats; conditions: 5 mg/kg intravenous bolus, two-compartment model, plasma LC/MS/MS
Procedure: (§1) Briefly, 3 days before the start of PN administration, cardiac catheterization was performed via the right jugular vein with a polyurethane catheter (0.6-mm ID, 0.9-mm OD, Primetech Co., Tokyo, Japan) in rats anesthetized with sodium pentobarbital, and given ampicillin for prevention of infection and local bupivacaine for pain relief. The cannulated rats were housed individually in cages with free access to food and water, and received saline at a rate of 0.1 mL/h for 3 days via the catheter with a syringe pump (ISIS Co., Ltd., Osaka, Japan), and daily ampicillin (2 mg/kg, 2-min infusion) for recovery from surgery. For PN administration, infusion of PN solution was started at a rate of 1.25 mL/h for 2 days under fasting and water-deprived conditions; PN solution consisting of glucose, amino acids, electrolytes, and vitamins (approximately 0.97 kcal/mL) was prepared by mixing PNTWIN No. 3 with VITAJECT (Fukushima et al. [2015]). Subsequently, PN administration was performed at a rate of 2.5 mL/h (viz., 60 mL/day, 58 kcal/day) for 7 days; likewise, the sham operated rats (control rats) underwent the same regimen with saline and allowed free access to food throughout the treatment.
(§2) Blood samples were taken 5, 15, 30, 45, 60, 90, 120, 180, 240, and 360 min after administration, and were centrifuged at 12,000 rpm for 15 min to collect the plasma fraction. In the intraduodenal administration study, the abdominal cavity was opened in anesthetized rats and the stomach was exposed. […] After administration, the incision was closed with a tissue adhesive and the pylorus was ligated. Blood samples were taken 5, 15, 30, 60, 90, 120, 180, 240, 300, and 360 min after administration, and plasma samples were collected by centrifugation. The collected plasma samples in both studies were immediately frozen at −80 °C until analysis.
(§3) After vortexing and centrifugation at 12,000 rpm for 15 min, the supernatant was diluted in 340 µL of distilled water and was passed through a filter, and 10 µL of the filtrate was injected into a Quattro Ultima LC/MS/MS system with a 2690 Separation Module (Waters Co, MA, UK). […] Mass spectrometry was conducted with electrospray ionization in positive mode (ESI+) under the following conditions: source temperature, 130 °C; cone voltage, 35 V; capillary voltage, 4.0 kV.
(§4) All pharmacokinetic analyses were performed using WinNonlin® Version 6.3 (Pharsight, Mountain View, CA). The structural parameters, including the absorption rate constant (ka), distribution volume of the central compartment (Vc), distribution volume of the peripheral compartment (Vp), total body clearance (CLtot), and distribution clearance (CLD2), and the secondary parameters including the maximum concentration (Cmax), time to maximum concentration (Tmax), distribution half-life (t1/2α), elimination half-life (t1/2β), and the area under the plasma concentration–time curve (AUC) were calculated. The bioavailability (F) was calculated using the following equation: F=AUCintraduodenal/Doseintraduodenal/AUCintravenous/Doseintravenous, where Dose represents the administered dosage.
(§5) All values are represented by the mean ± standard error (SE). Statistical differences of the means were assumed to be significant when p < 0.05 by the Mann–Whitney U test.

[3] = Pharmacokinetics of VCM after intraduodenal administration to control and PN rats; conditions: for F (bioavailability): 20 mg/kg intraduodenal vs 5 mg/kg intravenous, dose-normalised AUC ratio; for ka (absorption rate constant) / CLD2/F / Cmax (maximum concentration) / Vc/F / Vp/F / t1/2α (distribution half-life) / t1/2β (elimination half-life) / CLtot/F: 20 mg/kg intraduodenal, two-compartment model with first-order absorption, plasma LC/MS/MS; for ka (absorption rate constant): pylorus ligated
Procedure: as §1, §2, §3, §4, §5

[4] = PN rats (parenteral nutrition for 9 days), mean of n = 4
[5] = PN rats (parenteral nutrition for 9 days), mean of n = 4, p<0.05 vs control

Compound: CN[C@H](CC(C)C)C(=O)N[C@H]1C(=O)N[C@@H](CC(N)=O)C(=O)N[C@H]2C(=O)N[C@H]3C(=O)N[C@H](C(=O)N[C@H](C(=O)O)c4cc(O)cc(O)c4-c4cc3ccc4O)[C@H](O)c3ccc(c(Cl)c3)Oc3cc2cc(c3O[C@@H]2O[C@H](CO)[C@@H](O)[C@H](O)[C@H]2O[C@H]2C[C@](C)(N)[C@H](O)[C@H](C)O2)Oc2ccc(cc2Cl)[C@H]1O [VCM, vancomycin]
- protein binding rate [1]: approximately 47%
- AUC (area under the plasma concentration vs time curve) [2, 4]: 807 µg·min/mL
- CLD2 (distribution clearance) [2, 4]: 4.23 mL/min/kg
- CLtot (total body clearance) [2, 4]: 6.22 mL/min/kg
- Vc (distribution volume of the central compartment) [2, 4]: 0.234 L/kg
- Vp (distribution volume of the peripheral compartment) [2, 4]: 0.223 L/kg
- t1/2α (distribution half-life) [2, 4]: 13.72 min
- Vc (distribution volume of the central compartment) ([2]; control rats (sham, saline), male Wistar, mean of n = 4 (SE in own column)): 0.214 L/kg
- AUC (area under the plasma concentration vs time curve) ([2]; control rats, mean of n = 4): 788 µg·min/mL
- CLD2 (distribution clearance) ([2]; control rats, mean of n = 4): 6.26 mL/min/kg
- CLtot (total body clearance) ([2]; control rats, mean of n = 4): 6.44 mL/min/kg
- Vp (distribution volume of the peripheral compartment) ([2]; control rats, mean of n = 4): 0.283 L/kg
- t1/2α (distribution half-life) ([2]; control rats, mean of n = 4): 9.72 min
- F (bioavailability) [3, 5]: 1.295%
- ka (absorption rate constant) [3, 4]: 0.256 min⁻¹
- CLD2/F [3, 4]: 1360 mL/min/kg
- Cmax (maximum concentration) [3, 4]: 267 ng/mL
- Vc/F [3, 4]: 89 L/kg
- Vp/F [3, 4]: 29 L/kg
- t1/2α (distribution half-life) [3, 4]: 26.2 min
- t1/2β (elimination half-life) [3, 4]: 150 min
- CLtot/F [3, 5]: 590 mL/min/kg
- ka (absorption rate constant) ([3]; control rats (sham, saline), mean of n = 4): 0.214 min⁻¹
- F (bioavailability) ([3]; control rats, mean of n = 4): 0.504%
- CLD2/F ([3]; control rats, mean of n = 4): 2050 mL/min/kg
- CLtot/F ([3]; control rats, mean of n = 4): 1340 mL/min/kg
- Cmax (maximum concentration) ([3]; control rats, mean of n = 4): 111 ng/mL
- Vc/F ([3]; control rats, mean of n = 4): 158 L/kg
- Vp/F ([3]; control rats, mean of n = 4): 107 L/kg
- t1/2α (distribution half-life) ([3]; control rats, mean of n = 4): 31.4 min
- t1/2β (elimination half-life) ([3]; control rats, mean of n = 4): 174 min

Reference: article PMC4546118 (SpringerPlus, 2015)
